Measurements from US11980648B2, “Compositions including ginsenoside 20(S)-Rg3 and methods of using ginsenoside 20(S)-Rg3 to inhibit alpha herpesvirus” (MIDDLE TENNESSEE STATE UNIVERSITY, priority 2020, dated 2024).

Tests used:
normal WI 38 cells = settings: 120 μM; cited from earlier work
HSV-2 = assay: Virus inhibition, HSV-2 on Vero cells (PrestoBlue); assay type: cell-based, herpes simplex virus type 2
Method: (§1) Viruses and Quantification. Herpes simplex virus type 1 (HSV-1, MacIntyre strain, ATCC, VR-539) or herpes simplex virus type 2 (HSV-2, ATCC, VR-734) were used in these studies. Virus titer was determined by plaque assay. Briefly, following 2 hour-adsorption of various virus dilutions onto a Vero cell monolayer in a 24-well plate, the medium was removed and cells were overlaid with 1.5% carboxymethylcellulose (Sigma Chemical Company, St. Louis, Mo.) and incubated 48 hours at 37° C. with 5% CO2. After incubation, cells were fixed with methanol, stained with Giemsa (Sigma Chemical Company, St. Louis, Mo.) and plaques were counted. Each virus dilution was prepared in quadruplicate.
(§2) Cytotoxicity and Virus Inhibition. All ginsenosides, isomers, and protopanaxadiols were evaluated for toxic effects on Vero cells prior to anti-viral testing. Cells were seeded at 5000 cells/well in a black 96-well plate with clear bottom in a volume of 100 μL and allowed to attach for 24 hours. The P. ginseng compounds were prepared in DMSO at 100 μM and were taken through serial two-fold dilutions to determine the concentration when the rate of cell death was less than 10% compared to control, untreated cells. Each dilution was tested in three wells and all assays were repeated three times. Following a 48 hour-incubation at 37° C. in 5% CO2, 11 μL of PrestoBlue (Invitrogen, Carlsbad, Calif.) was added to each well and the plate was incubated for an additional 30 minutes. PrestoBlue determines cell viability by changing from blue to red as resazurin is reduced to resorufin by viable cells. Following the PrestoBlue incubation, fluorescence was determined by spectrophotometric reading using Soft Max Pro (Molecular Diagnostics, San Jose, Calif., USA).
(§3) For cytotoxicity testing, 4 μL of dilutions of the ginsenosides or protopanaxadiols were added to 396 μL of medium 199 and 100 μL of this mixture was added to each of three wells. For anti-viral testing, 4 μL of the non-toxic reagent and 4 μL of HSV-1 or HSV-2 diluted to an MOI of 0.1 were added to 392 μL of medium 199 and 100 μL of this mixture was added to each of three wells. Virus inhibition was determined by comparing the cell death of reagent-exposed cells with cell death of control cells only receiving virus. The 50% inhibitory concentration (IC50) was determined through a series of two-fold dilutions and calculation by linear regression analysis.

HSV-1 [1] = assay: Time studies of HSV-1 inhibition (PrestoBlue); assay type: cell-based, herpes simplex virus type 1; settings: Rg3 50 μM
Method: Time Studies. For virus inhibition studies described above, reagent 20(S)-Rg3 and virus were added to cells simultaneously. To evaluate the potential mode of action of Rg3, various combinations of valacyclovir, Rg3 and HSV-1 were tested at different time periods. The following combinations were evaluated at both one hour and four hours: • Virus applied to cells first (for one hour or four hours), followed by addition of valacyclovir, Rg3 or both valacyclovir and Rg3 to the cells; • Valacyclovir or Rg3 or both valacyclovir and Rg3 applied to cells first (for one or four hours), followed by virus; • Valacyclovir or Rg3 incubated together with virus first for one or four hours then added to cells.
All procedures described for evaluation of virus inhibition were followed in identical fashion as outlined for the PrestoBlue procedure except valacyclovir was used at a constant concentration of 16 μM and 20(S)-Rg3 at 50 μM.

HSV-1 [2] = assay: Mouse susceptibility study, lethal HSV-1 infection; assay type: in vivo, BALB/c mice; settings: for mortality: BALB/c mice, lethal dose HSV-1
Method: Mouse Susceptibility Study. BALB/c mice and the HSV-1, MacIntyre strain, ATCC VR-539, were used to determine the effectiveness of the 20(S)-Rg3 ginsenoside in preventing mortality in mice caused by infection of HSV-1. On day 1 of the study, four groups consisting of four mice each were injected intraperitoneally with 800,000 PFU of HSV-1, MacIntyre strain, ATCC VR-539. Three of the groups were treated daily with 1 mg/kg, 3 mg/kg, or 10 mg/kg intraperitoneal injections of the 20(S)-Rg3 ginsenoside and one group in the study received no treatment.

HSV-1 [3] = assay: Plaque reduction of HSV-1 on Vero cell monolayer; assay type: cell-based, herpes simplex virus type 1 (MacIntyre strain); settings: valacyclovir 16 μM, 20(S)-Rg3 50 μM, about 50 PFU/well, 48 hours; for Number of Plaques: ± standard error
Method: as §1
The plaque assay procedure also was used to evaluate the percent plaque reduction; the only procedural change was that a constant virus concentration was used (50 plaque forming units (PFU)/well). Plaque reduction was measured by comparing the control (virus only), with valacyclovir (16 μM) with virus or 20(S)-Rg3 (50 μM) with virus. Sample wells were evaluated in quadruplicate. Following the 2 hour-virus adsorption, the methylcellulose-medium containing the same concentrations of valacyclovir or Rg3 was added to the appropriate wells. After 48 hours, plaques were fixed, stained and counted.

HSV-1 [4] = assay: Virus inhibition, HSV-1 on Vero cells (PrestoBlue); assay type: cell-based, herpes simplex virus type 1 (MacIntyre strain)
Method: as §1, §2, §3

For `CC(C)=CCC[C@](C)(O)C1CC[C@]2(C)C1[C@H](O)CC1[C@@]3(C)CC[C@H](O[C@@H]4OC(CO)[C@@H](O)[C@@H](O)C4O[C@@H]4OC(CO)[C@@H](O)[C@@H](O)C4O)C(C)(C)C3CC[C@]12C` (stereo partly drawn) [20(S)-Rg3, 20(S)-ginsenoside-Rg3], the “effect on normal WI 38 cells” value (normal WI 38 cells) is listed as “no effect”, the “Percent Inhibition of HSV-2” value (HSV-2; 50 μM, ± standard error) is listed as 81.7 ± 10.3% and the “Percent Inhibition of HSV-2” value (HSV-2; 100 μM, ± standard error) is listed as “nearly completely inhibited”. The inhibition at 25 µM (HSV-2; Human alphaherpesvirus 2, Vero, 25 μM, ± standard error, read-out: Percent Inhibition of HSV-2) was 14.3 ± 3.3%, the inhibition at 50 µM (HSV-2; Human alphaherpesvirus 2, Vero, 50 μM, ± standard error, read-out: Percent Inhibition of HSV-2) was 80% and the inhibition at 100 µM (HSV-2; Human alphaherpesvirus 2, Vero, 100 μM, ± standard error, read-out: Percent Inhibition of HSV-2) was 115 ± 6.7%. The IC50 (HSV-2; Human alphaherpesvirus 2, Vero, two-fold dilutions, linear regression, read-out: IC50 against HSV-2) was ~35 µM, the “Percent Inhibition of HSV-1” value (HSV-1 [1]; HSV-1 incubated with compound(s) 4 hours prior to addition to cells, valacyclovir 16 μM) was “over 110%” and the “Percent Inhibition of HSV-1” value (HSV-1 [1]; HSV-1 incubated with compound(s) 4 hours prior to addition to cells, valacyclovir 16 μM, listed as Rg3) was 113.7±14.8%. For the same compound, the “Percent Inhibition of HSV-1” value (HSV-1 [1]; cells pretreated with compound 4 hours prior to HSV-1 addition) was 90.1±11.1%, the “Percent Inhibition of HSV-1” value (HSV-1 [1]; virus present on cells 4 hours prior to compound addition) was 50.7±4.4% and the mortality (HSV-1 [2]; 1 mg/kg daily intraperitoneal) was 0%. The mortality (HSV-1 [2]; 3 mg/kg daily intraperitoneal) was 0%, the mortality (HSV-1 [2]; 10 mg/kg daily intraperitoneal) was 0% and the signs of stress (HSV-1 [2]; daily 1 mg/kg, 3 mg/kg or 10 mg/kg groups, duration of the study) was “never showed any signs of stress”. For the same compound, the “Percent Reduction of plaques compared to the control” value (HSV-1 [3]) was 97.3%, the “Number of Plaques” value (HSV-1 [3]) was 1.5 ± 0.3 and the “Number of Plaques” value (HSV-1 [3]; listed as Rg3) was 1.5±0.3. The “Percent Inhibition of HSV-1” value (HSV-1 [4]; 50 μM, ± standard error) was 82.3 ± 3.5%, the “Percent Inhibition of HSV-1” value (HSV-1 [4]; 100 μM, ± standard error) was “nearly completely inhibited” and the inhibition at 25 µM (HSV-1 [4]; Human alphaherpesvirus 1, Vero, 25 μM, ± standard error, read-out: Percent Inhibition of HSV-1) was 11 ± 2.6%. It also gave an inhibition at 50 µM (HSV-1 [4]; Human alphaherpesvirus 1, Vero, 50 μM, ± standard error, read-out: Percent Inhibition of HSV-1) of 80%, an inhibition at 100 µM (HSV-1 [4]; Human alphaherpesvirus 1, Vero, 100 μM, ± standard error, read-out: Percent Inhibition of HSV-1) of 90.3 ± 9.9% and an IC50 (HSV-1 [4]; Human alphaherpesvirus 1, Vero, two-fold dilutions, linear regression, read-out: IC50 against HSV-1) of ~35 µM.
